Assay results from PubChem BioAssay (NCI).
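Briefly, cells in 96-well plates were exposed to five compound concentrations for 48 h, and endpoints were estimated by linear interpolation. The concentration for 50% growth inhibition is given as GI50. TGI: concentration producing complete growth inhibition.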

How the values were obtained:
Experiment in all cases: growth of human tumour cells (NCI), 48 h
SN12C renal = system: SN12C renal
DLD-1 colon = system: DLD-1 colon
HCT-116 colon = system: HCT-116 colon
KM20L2 colon = system: KM20L2 colon
M19-MEL melanoma = system: M19-MEL melanoma
OVCAR-5 ovarian = system: OVCAR-5 ovarian
SR leukemia = system: SR leukemia
T-47D breast = system: T-47D breast
BT-549 breast = system: BT-549 breast
NCI/ADR-RES ovarian = system: NCI/ADR-RES ovarian

Row | Structure (SMILES) | TGI (SN12C renal) [µM] | TGI (DLD-1 colon) [µM] | TGI (HCT-116 colon) [µM] | TGI (KM20L2 colon) [µM] | TGI (M19-MEL melanoma) [µM] | TGI (OVCAR-5 ovarian) [µM] | TGI (SR leukemia) [µM] | GI50 (SN12C renal) [µM] | GI50 (HCT-116 colon) [µM] | GI50 (T-47D breast) [µM] | TGI (T-47D breast) [µM] | TGI (BT-549 breast) [µM] | GI50 (SR leukemia) [µM] | GI50 (OVCAR-5 ovarian) [µM] | GI50 (NCI/ADR-RES ovarian) [µM] | TGI (NCI/ADR-RES ovarian) [µM] | GI50 (BT-549 breast) [µM]
1 | c1ccc(SC2CCSc3ccccc3C2Sc2ccccc2)cc1 (stereo unspecified) | > 100 | > 100 | > 100 | > 100 |  |  |  |  |  |  |  |  |  |  |  |  | 
2 | CCc1c(OC(C)=O)c2c(NC3OC(COC(C)=O)C(OC(C)=O)C(OC(C)=O)C3OC(C)=O)nc(OC)nc2oc1=O (stereo unspecified) | > 100 | > 100 | > 100 | > 100 | > 100 | > 100 |  |  |  |  |  |  |  |  |  |  | 
3 | O=C(CSc1nnc(-c2ccc(N=Cc3ccc(Cl)cc3)cc2)o1)Nc1ccc(Cl)cc1 | > 100 |  | > 100 | > 100 | > 100 |  | > 100 |  |  |  |  |  |  |  |  |  | 
4 | Cc1ccc(S(=O)(=O)N/N=C/c2oc(-c3ccncc3)c(-c3ccncc3)c2[N+](=O)[O-])cc1 | > 100 | > 100 | > 100 | > 100 | > 100 | > 100 | > 100 |  |  |  |  |  |  |  |  |  | 
5 | COC1[C@@H](OC(C)=O)[C@@H](NC(=O)C(Cl)(Cl)Cl)C(I)[C@@H](N2C(=O)c3ccccc3C2=O)[C@H]1OC (stereo partly specified) | > 100 | > 100 | > 100 | > 100 |  | > 100 | > 100 |  |  |  |  |  |  |  |  |  | 
6 | O=C(O)[C@H](NS(=O)(=O)c1ccc2ccccc2c1)c1ccccc1 | > 100 | > 100 |  | > 100 | > 100 | > 100 |  |  |  |  |  |  |  |  |  |  | 
7 | Ic1ccc(-n2nnnc2-c2cnoc2-c2ccccc2)cc1 | > 88.3 |  | > 70 |  |  | > 100 | > 100 | 48.9 | > 43 | 48.8 | > 100 | 9.49 | 37.7 | > 100 | 33 | > 85.2 | 
8 | Cc1ccc(NC(=O)C2C(=O)N(c3ccc(C)c(C)c3)C(=O)C2N=N)cc1C (stereo unspecified) | > 100 | > 100 | > 100 | > 100 | > 100 | > 100 |  |  |  |  |  |  |  |  |  |  | 
9 | CS(=O)(=O)CCCn1c(=O)c(Oc2ccc(F)cc2F)cc2cnc(NC3CCOCC3)nc21 | > 25 |  | > 25 |  |  | > 25 | > 25 | > 25 | > 25 | > 25 | > 25 | > 25 | > 25 | > 25 | > 25 | > 25 | > 25
10 | CCc1cccc(C)c1NC(=O)C(=O)Cc1nc2ccccc2o1 | > 100 | > 100 | > 100 | > 100 | > 100 | > 100 | > 100 |  |  |  |  |  |  |  |  |  | 
11 | CCOC(=O)C1(c2ccccc2)CCC(=O)CC1 | > 100 | > 100 | > 100 | > 100 | > 100 | > 100 |  |  |  |  |  |  |  |  |  |  | 
12 | COc1ccc(-c2cc(-c3ccccc3)c(C#N)c(=O)n2C2OC(CO)C(O)C(O)C2O)cc1 (stereo unspecified) | > 100 | > 100 | > 100 | > 100 | > 100 | > 100 | > 100 |  |  |  |  |  |  |  |  |  | 
13 | COc1cc(C2c3cc4c(cc3C(O)C(CO)C2CO)OCO4)cc(OC)c1OC (stereo unspecified) | > 100 |  | > 100 |  |  | > 100 | > 48.5 | 4.94 | 0.492 |  | > 100 | > 54.9 | 0.342 | 5.69 | 21.5 | > 100 | 1.92
14 | Cc1ccc(Cl)cc1Nc1nc(C(F)(F)F)ccc1C(=O)N1CCN(c2cccc(Cl)c2)CC1 | > 100 |  | > 100 |  |  | > 100 | > 100 | > 100 | 37.9 | 37.6 | > 100 | > 100 | 3.06 | > 100 | > 100 | > 100 | > 100
15 | C[C@H]1NC(=O)C2CCCCN2C(=O)CN(C)C(=O)CNC(=O)C2CCCCN2C(=O)[C@@H](NC(=O)c2nc3ccccc3cc2O)[C@@H](C)NC(=O)C2CCCCN2C(=O)CN(C)C(=O)CNC(=O)[C@@H]2CCCCN2C(=O)C1NC(=O)c1nc2ccccc2cc1O (stereo partly specified) | > 100 |  |  | 10.4 | 0.56 | 7.55 |  |  |  |  |  |  |  |  |  |  | 
16 | COC1C(O)=C2C(=O)O/C(C)=C/C=C/C=C/C=C\CC(c3ccccc3)NC(=O)\C=C/C=C\C=C\C=C\[C@@]2(C)[C@@H]1O (stereo partly specified) | 0.538 | 0.147 | 0.0198 | 0.165 | 0.273 | 0.413 | 0.165 |  |  |  | 0.158 | 0.0201 |  |  |  |  | 
17 | COc1ccc(NC(=O)/C(N=O)=C(/C)O)cc1 | > 100 | > 100 | > 100 | > 100 |  | > 100 | > 100 |  |  |  |  |  |  |  |  |  | 
18 | Cc1nc2cnc(N)c(C#Cc3cncc(C(=O)Nc4ccc(CN5CCN(C)CC5)c(C(F)(F)F)c4)c3)c2nc1C | 11.8 |  | 1.57 |  |  | 11 | 10.9 | 0.381 | 0.219 | 3.35 | 26 | 11.8 | 1.67 | 0.304 | 7.56 | 23.8 | 2
